The target in one test is T1, E. coli K12 PBP3 (Escherichia coli, UniProt P0AD68).
T1 construct: made in house
Briefly: biochemical. It counts as binding. The procedure, abridged: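 A. baumannii PBP2 (2.5 μM) and PBP3 (0.2 μM) were run in 25 mM Tris pH 8.0 buffer with Tween 20; E. coli PBP3 (1.5 μM) and N. gonorrhoeae PBP2 ([…]) in 50 mM Hepes pH 8.0 buffer.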

Another test deals with E. coli D22. The test is described as follows: Broth microdilution MIC in CAMHB. It counts as cell-based. The conditions noted are these: Escherichia coli; E. coli D22 (hyper-permeable); MHB; read-out: Minimum Inhibitory Concentration, E. coli D22. In a few lines:
(§1)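 Lowest compound concentration with no visible growth after 16-20 h at 37 °C defines MIC. Plates of 2-fold serial dilutions in cation-adjusted Mueller Hinton broth received 2-8×10^5 CFU/mL of exponentially grown cells, per CLSI methods; panel spans reference, hyper-permeable and efflux-pump-deleted strains.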
Background: In broth dilution the organism is exposed to a series of concentrations in liquid medium.

The subject of another test is E. coli ATCC 25922. Briefly: Broth microdilution MIC in CAMHB. The format is cell-based. The conditions noted are these: Escherichia coli, ATCC25922; E. coli ATCC 25922; MHB; read-out: Minimum Inhibitory Concentration, E. coli 25922. In a few lines: as §1
The next test relates to P. aeruginosa ATCC 35151. Briefly: Broth microdilution MIC in CAMHB. The format is cell-based. The note with it: Pseudomonas aeruginosa, ATCC35151; MHB; hyper-permeable strain; read-out: Minimum Inhibitory Concentration, P. aeruginosa ATCC 35151. In a few lines:
as §1

Test [1] relates to K. pneumoniae SI-117 producing VIM-1. Briefly: Broth microdilution MIC in CAMHB. The format is cell-based. The note with it: Klebsiella pneumoniae, read-out: Minimum Inhibitory Concentration, K. pneumoniae SI-117. The procedure, abridged: as §1

≈ marks a conversion by molar mass, not a printed value.

One may read the EC50 as the concentration that produces a half-maximal response. A higher EC50 goes with a less potent agent.

T1 sequence (P0AD68 1-577): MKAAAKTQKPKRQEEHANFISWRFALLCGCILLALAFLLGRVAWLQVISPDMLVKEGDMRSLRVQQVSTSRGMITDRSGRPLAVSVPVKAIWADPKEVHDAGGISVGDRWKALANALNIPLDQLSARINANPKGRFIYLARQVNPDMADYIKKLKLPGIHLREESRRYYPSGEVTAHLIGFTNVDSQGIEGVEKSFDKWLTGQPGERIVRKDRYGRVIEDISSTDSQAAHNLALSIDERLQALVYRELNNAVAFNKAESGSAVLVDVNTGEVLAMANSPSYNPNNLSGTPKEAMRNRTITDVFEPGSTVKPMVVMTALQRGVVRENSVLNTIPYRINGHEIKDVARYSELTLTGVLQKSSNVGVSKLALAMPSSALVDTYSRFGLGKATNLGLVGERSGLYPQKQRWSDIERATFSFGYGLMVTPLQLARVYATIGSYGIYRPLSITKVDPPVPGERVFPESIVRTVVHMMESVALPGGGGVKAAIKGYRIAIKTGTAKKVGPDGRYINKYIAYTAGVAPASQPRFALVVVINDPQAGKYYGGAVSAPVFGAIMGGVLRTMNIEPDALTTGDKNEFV

`CCN1CCN(C(=O)NC(C(=O)N[C@H]2Cc3cccc(C(=O)O)c3OB2O)c2ccc(O)cc2OC)C(=O)C1=O` (stereo partly drawn) [Example 70, (3R)-3-(2-(4-ethyl-2,3-dioxopiperazine-1-carboxamido)-2-(4-hydroxy-2-methoxyphenyl)acetamido)-2-hydroxy-3,4-dihydro-2H-benzo[e][1,2]oxaborinine-8-carboxylic acid] had a concentration giving a half-maximal response (EC50) at E. coli K12 PBP3 of 30 to 500 µM. Moreover, the MIC with E. coli D22 is 8 to 16 µg/mL (≈ 14.4 to 28.9 µM); with E. coli ATCC 25922 it was over 128 µg/mL; with P. aeruginosa ATCC 35151, 8 to 16 µg/mL (≈ 14.4 to 28.9 µM); in test [1], over 128 µg/mL.
Take `CCN1CCN(C(=O)NC(C(=O)N[C@H]2Cc3cccc(C(=O)O)c3OB2O)c2cccc(N)c2)C(=O)C1=O` (stereo partly drawn) [Example 72, (3R)-3-(2-(3-aminophenyl)-2-(4-ethyl-2,3-dioxopiperazine-1-carboxamido)acetamido)-2-hydroxy-3,4-dihydro-2H-benzo[e][1,2]oxaborinine-8-carboxylic acid]: at E. coli K12 PBP3, the EC50 was under 30 µM. In addition, the MIC is 2 to 4 µg/mL (≈ 3.82 to 7.64 µM) in the test with E. coli D22, 32 to 64 µg/mL (≈ 61.1 to 122 µM) in the test with E. coli ATCC 25922, 2 to 4 µg/mL (≈ 3.82 to 7.64 µM) in the test on P. aeruginosa ATCC 35151 and over 128 µg/mL in test [1].
In turn, `CCN1CCN(C(=O)NC(C(=O)N[C@H]2Cc3cccc(C(=O)O)c3OB2O)c2cccc(NC(=O)c3ccc(O)c(O)c3Cl)c2)C(=O)C1=O` (stereo partly drawn) [Example 73, (3R)-3-(2-(3-(2-chloro-3,4-dihydroxybenzamido)phenyl)-2-(4-ethyl-2,3-dioxopiperazine-1-carboxamido)acetamido)-2-hydroxy-3,4-dihydro-2H-benzo[e][1,2]oxaborinine-8-carboxylic acid] registered an EC50 on E. coli K12 PBP3 of under 30 µM. Also, the MIC in the test on E. coli D22 lay within 2 to 4 µg/mL (≈ 2.88 to 5.76 µM); in the test with E. coli ATCC 25922, 2 to 4 µg/mL (≈ 2.88 to 5.76 µM); in the test with P. aeruginosa ATCC 35151 it was 0.5 to 1 µg/mL (≈ 0.721 to 1.44 µM); in test [1], 8 to 16 µg/mL (≈ 11.5 to 23.1 µM).
As for `CCN1CCN(C(=O)NC(C(=O)N[C@H]2Cc3cccc(C(=O)O)c3OB2O)c2ccc(O)c(NC(=O)c3ccc(O)c(O)c3Cl)c2)C(=O)C1=O` (stereo partly drawn) [Example 74, (3R)-3-(2-(3-(2-chloro-3,4-dihydroxybenzamido)-4-hydroxyphenyl)-2-(4-ethyl-2,3-dioxopiperazine-1-carboxamido)acetamido)-2-hydroxy-3,4-dihydro-2H-benzo[e][1,2]oxaborinine-8-carboxylic acid], at E. coli K12 PBP3, the EC50 was under 30 µM. For the same compound, the MIC in the test with E. coli D22 was 2 to 4 µg/mL (≈ 2.82 to 5.63 µM); in the test on E. coli ATCC 25922 it was over 128 µg/mL; in the test with P. aeruginosa ATCC 35151 it was 0.5 to 1 µg/mL (≈ 0.704 to 1.41 µM); in test [1] it was over 128 µg/mL.
For `CCN1CCN(C(=O)NC(C(=O)N[C@H]2Cc3cccc(C(=O)O)c3OB2O)c2cccc([N+](=O)[O-])c2)C(=O)C1=O` (stereo partly drawn) [Example 75, (3R)-3-(2-(4-ethyl-2,3-dioxopiperazine-1-carboxamido)-2-(3-nitrophenyl)acetamido)-2-hydroxy-3,4-dihydro-2H-benzo[e][1,2]oxaborinine-8-carboxylic acid], the EC50 on E. coli K12 PBP3 lay within 30 to 500 µM. Further, the MIC in the test with E. coli D22 is 8 to 16 µg/mL (≈ 14.5 to 28.9 µM); in the test on E. coli ATCC 25922 it was over 128 µg/mL; in the test on P. aeruginosa ATCC 35151 it was 8 to 16 µg/mL (≈ 14.5 to 28.9 µM); in test [1], over 128 µg/mL.
At E. coli K12 PBP3, `CCN1CCN(C(=O)NC(C(=O)N[C@H]2Cc3cccc(C(=O)O)c3OB2O)c2cccc(NS(C)(=O)=O)c2)C(=O)C1=O` (stereo partly drawn) [Example 76, (3R)-3-(2-(4-ethyl-2,3-dioxopiperazine-1-carboxamido)-2-(3-(methylsulfonamido)phenyl)acetamido)-2-hydroxy-3,4-dihydro-2H-benzo[e][1,2]oxaborinine-8-carboxylic acid] registered an EC50 of under 30 µM. The MIC with E. coli D22 is 2 to 4 µg/mL (≈ 3.33 to 6.65 µM); in the test on E. coli ATCC 25922, 32 to 64 µg/mL (≈ 53.2 to 106 µM); in the test with P. aeruginosa ATCC 35151, 2 to 4 µg/mL (≈ 3.33 to 6.65 µM); in test [1] it was over 128 µg/mL.
`CCN1CCN(C(=O)NC(C(=O)N[C@H]2Cc3cccc(C(=O)O)c3OB2O)c2cc(O)ccc2O)C(=O)C1=O` (stereo partly drawn) [Example 77, (3R)-3-(2-(2,5-dihydroxyphenyl)-2-(4-ethyl-2,3-dioxopiperazine-1-carboxamido)acetamido)-2-hydroxy-3,4-dihydro-2H-benzo[e][1,2]oxaborinine-8-carboxylic acid]: the EC50 on E. coli K12 PBP3 lay in the range of 30 to 500 µM. Further, the MIC with E. coli D22 was 8 to 16 µg/mL (≈ 14.8 to 29.6 µM); in the test on E. coli ATCC 25922, over 128 µg/mL; in the test with P. aeruginosa ATCC 35151 it was 8 to 16 µg/mL (≈ 14.8 to 29.6 µM); in test [1] it was over 128 µg/mL.
As to `N=C(N)NCCN1CCN(C(=O)NC(C(=O)N[C@H]2Cc3ccc(F)c(C(=O)O)c3OB2O)c2ccc(C(=O)O)c(F)c2)C(=O)C1=O` (stereo partly drawn) [Example 78, (3R)-3-(2-(4-carboxy-3-fluorophenyl)-2-(4-(2-guanidinoethyl)-2,3-dioxopiperazine-1-carboxamido)acetamido)-7-fluoro-2-hydroxy-3,4-dihydro-2H-benzo[e][1,2]oxaborinine-8-carboxylic acid], the EC50 on E. coli K12 PBP3 is 30 to 500 µM. Moreover, the MIC with E. coli D22 was 8 to 16 µg/mL (≈ 12.4 to 24.8 µM); in the test on E. coli ATCC 25922, over 128 µg/mL; in the test on P. aeruginosa ATCC 35151 it was 0.5 to 1 µg/mL (≈ 0.775 to 1.55 µM); in test [1], over 128 µg/mL.
On to `NCCN1CCN(C(=O)NC(C(=O)N[C@H]2Cc3cccc(C(=O)O)c3OB2O)c2cc(Cl)c(O)cc2F)C(=O)C1=O` (stereo partly drawn) [Example 87, (3R)-3-(2-(4-(2-aminoethyl)-2,3-dioxopiperazine-1-carboxamido)-2-(5-chloro-2-fluoro-4-hydroxyphenyl)acetamido)-2-hydroxy-3,4-dihydro-2H-benzo[e][1,2]oxaborinine-8-carboxylic acid], for which the EC50 on E. coli K12 PBP3 was under 30 µM. The MIC was 2 to 4 µg/mL (≈ 3.38 to 6.76 µM) in the test with E. coli D22, 8 to 16 µg/mL (≈ 13.5 to 27 µM) in the test on E. coli ATCC 25922, 0.5 to 1 µg/mL (≈ 0.845 to 1.69 µM) in the test on P. aeruginosa ATCC 35151 and 32 to 64 µg/mL (≈ 54.1 to 108 µM) in test [1].
On to `NCCN1CCN(C(=O)N[C@@H](C(=O)N[C@H]2Cc3cccc(C(=O)O)c3OB2O)c2cc(Cl)c(O)cc2Cl)C(=O)C1=O` [Example 90, (R)-3-((R)-2-(4-(2-aminoethyl)-2,3-dioxopiperazine-1-carboxamido)-2-(2,5-dichloro-4-hydroxyphenyl)acetamido)-2-hydroxy-3,4-dihydro-2H-benzo[e][1,2]oxaborinine-8-carboxylic acid], for which the EC50 on E. coli K12 PBP3 was under 30 µM. Also, the MIC is 8 to 16 µg/mL (≈ 13.2 to 26.3 µM) with E. coli D22, over 128 µg/mL in the test with E. coli ATCC 25922, 0.5 to 1 µg/mL (≈ 0.822 to 1.64 µM) in the test with P. aeruginosa ATCC 35151 and over 128 µg/mL in test [1].
The compound `NCCN1CCN(C(=O)NC(C(=O)N[C@H]2Cc3cccc(C(=O)O)c3OB2O)c2cc(F)c(O)cc2F)C(=O)C1=O` (stereo partly drawn) [Example 93, (3R)-3-(2-(4-(2-aminoethyl)-2,3-dioxopiperazine-1-carboxamido)-2-(2,5-difluoro-4-hydroxyphenyl)acetamido)-2-hydroxy-3,4-dihydro-2H-benzo[e][1,2]oxaborinine-8-carboxylic acid] displayed an EC50 on E. coli K12 PBP3 of under 30 µM. Besides, the MIC was in the range of 2 to 4 µg/mL (≈ 3.48 to 6.95 µM) in the test with E. coli D22, 8 to 16 µg/mL (≈ 13.9 to 27.8 µM) in the test with E. coli ATCC 25922, 0.5 to 1 µg/mL (≈ 0.869 to 1.74 µM) in the test on P. aeruginosa ATCC 35151 and 32 to 64 µg/mL (≈ 55.6 to 111 µM) in test [1].
Consider `NCCN1CCN(C(=O)NC(C(=O)N[C@H]2Cc3cccc(C(=O)O)c3OB2O)c2c(F)cc(O)cc2Cl)C(=O)C1=O` (stereo partly drawn) [Example 94, (3R)-3-(2-(4-(2-aminoethyl)-2,3-dioxopiperazine-1-carboxamido)-2-(2-chloro-6-fluoro-4-hydroxyphenyl)acetamido)-2-hydroxy-3,4-dihydro-2H-benzo[e][1,2]oxaborinine-8-carboxylic acid], for which the EC50 at E. coli K12 PBP3 is under 30 µM. Moreover, the MIC was 8 to 16 µg/mL (≈ 13.5 to 27 µM) with E. coli D22, 32 to 64 µg/mL (≈ 54.1 to 108 µM) with E. coli ATCC 25922, 2 to 4 µg/mL (≈ 3.38 to 6.76 µM) in the test on P. aeruginosa ATCC 35151 and 32 to 64 µg/mL (≈ 54.1 to 108 µM) in test [1].
`CCN1CCN(C(=O)NC(C(=O)N[C@H]2Cc3cccc(C(=O)O)c3OB2O)c2c(F)cc(O)cc2Cl)C(=O)C1=O` (stereo partly drawn) [Example 95, (3R)-3-(2-(2-chloro-6-fluoro-4-hydroxyphenyl)-2-(4-ethyl-2,3-dioxopiperazine-1-carboxamido)acetamido)-2-hydroxy-3,4-dihydro-2H-benzo[e][1,2]oxaborinine-8-carboxylic acid]: the EC50 at E. coli K12 PBP3 was under 30 µM. Besides, the MIC was in the range of 0.5 to 1 µg/mL (≈ 0.867 to 1.73 µM) in the test on E. coli D22, 8 to 16 µg/mL (≈ 13.9 to 27.7 µM) with E. coli ATCC 25922, 2 to 4 µg/mL (≈ 3.47 to 6.94 µM) in the test on P. aeruginosa ATCC 35151 and 32 to 64 µg/mL (≈ 55.5 to 111 µM) in test [1].
At E. coli K12 PBP3, `CCN1CCN(C(=O)NC(C(=O)N[C@H]2Cc3cccc(C(=O)O)c3OB2O)c2cccc(NC(=O)c3cncnc3)c2)C(=O)C1=O` (stereo partly drawn) [Example 96, (3R)-3-(2-(4-ethyl-2,3-dioxopiperazine-1-carboxamido)-2-(3-(pyrimidine-5-carboxamido)phenyl)acetamido)-2-hydroxy-3,4-dihydro-2H-benzo[e][1,2]oxaborinine-8-carboxylic acid] had an EC50 of 30 to 500 µM. Further, the MIC with E. coli D22 is 8 to 16 µg/mL (≈ 12.7 to 25.4 µM); in the test with E. coli ATCC 25922, over 128 µg/mL; with P. aeruginosa ATCC 35151 it was 2 to 4 µg/mL (≈ 3.18 to 6.36 µM); in test [1], over 128 µg/mL.
At E. coli K12 PBP3, `CCN1CCN(C(=O)NC(C(=O)N[C@H]2Cc3cccc(C(=O)O)c3OB2O)c2cccc(NC(=O)c3cccnc3)c2)C(=O)C1=O` (stereo partly drawn) [Example 97, (3R)-3-(2-(4-ethyl-2,3-dioxopiperazine-1-carboxamido)-2-(3-(nicotinamido)phenyl)acetamido)-2-hydroxy-3,4-dihydro-2H-benzo[e][1,2]oxaborinine-8-carboxylic acid] gave a concentration for a half-maximal effect (EC50) of under 30 µM. Also, the MIC is 8 to 16 µg/mL (≈ 12.7 to 25.5 µM) in the test on E. coli D22, over 128 µg/mL in the test with E. coli ATCC 25922, 8 to 16 µg/mL (≈ 12.7 to 25.5 µM) in the test on P. aeruginosa ATCC 35151 and over 128 µg/mL in test [1].
